Tests used:
[1] = test system: human erythrocyte suspension; test: Cytotoxicity of fecal water, potassium release from erythrocytes (erythrocyte bioassay); type: cell-based
Protocol: Fecal water was prepared by reconstituting a small amount of freeze-dried feces with double-distilled water to 20 % dry weight. After homogenizing, samples were incubated for 1 hour in a shaking water bath at 37°C, with mixing every 15 min, followed by centrifugation for 20 min at 13.500 g. The supernatants were collected and centrifuged again at 14.000 g for 2 min. The osmolarity (Osmomat 030-D, Gonotec, Berlin, Germany) of the fecal waters was determined. If osmolarity differed from 300 mOsmol/L, another portion of freeze-dried feces was reconstituted with double-distilled water, adjusting the percentage dry weight to obtain fecal water with an osmolarity of 300 mOsmol/L. The fecal waters were stored at -20°C until further analysis.
(§1) Cytotoxicity of fecal water was quantified by potassium release after incubation with a human erythrocyte suspension as described previously and validated earlier with intestinal epithelial cells. The potassium content of the erythrocytes was measured with an Inductive Coupled Plasma […] Emission Spectrophotometer (ICP-AES, Varian, Mulgrave, Australia) and the cytotoxicity of fecal water was calculated and expressed as a percentage of maximal lysis.

colonocytes = test: Quantification of epithelial (host) DNA in feces by real-time PCR for the β-globin gene; type: in vivo, rats
Protocol: Food and demineralised drinking water were supplied ad libitum.
Fecal host DNA content was quantified using DNA extraction and real-time PCR, using rat-specific probe and primers for the β-globin gene. In short, DNA was isolated from 20 mg freeze-dried feces using the QIAamp DNA stool mini kit (Westburg, Leusden, The Netherlands) following the recommendations of the manufacturer for human DNA analysis. […] The standard DNA used for the quantification of the DNA in the feces was isolated from rat spleen, using the Wizard Genomic DNA purification kit (Promega Corporation, Madison, WI, USA). The real-time PCR was performed using the ABI prism 7700 Sequence Detection system (PE Applied Biosystems, Nieuwerkerk a/d IJssel, The Netherlands). Universal Taqman Master Mix and Taqman Exogenous Internal positive Control (IPC) Reagent (Vic ™ probe) were purchased from Applied Biosystems and the Taqman probe containing a 5' FAM labeled fluorescent reporter dye (6-carboxyfluorosein) and a 3' TAMRA quencher dye (6-carboxytetramethylrhodamine) was purchased from Proligo (Paris, France). PCR primers were synthesized by Amersham Pharmacia Biotech Custom DNA Synthesis Service (Roosendaal, The Netherlands). For amplification of host DNA 5 µl of the purified DNA (100-500 ng) was used in a volume of 50 µl, containing 1x Master Mix, 200 nM forward primer (5'-[…]-3'), 200 nM reverse primer (5'-[…]-3'), 100 nM probe (5'-[…]-3'), 1x IPC mix and 1x IPC DNA. The PCR protocol consisted of 2 min 50°C, 10 min 95°C and 40 cycles of 15 sec 95°C and 1 min 62°C.

colonic epithelial cells = test: In vivo colonic epithelial cell proliferation, [methyl-3H]thymidine incorporation into DNA; parameters: species or system rats
Protocol: About eight-week-old, outbred male Wistar rats (Harlan Horst/WU, SPF) were housed individually in metabolic cages in a room with controlled temperature (± 20°C), relative humidity (50-60%) and a light/dark cycle (6 AM to 6 PM). Animals were acclimatized to housing conditions for 5 days before start of the experiment.
In the first study we tested whether spinach prevents the effect of dietary heme. […] During two weeks, four groups of eight rats were fed purified diets. The control group consumed a diet which contained per kg, 200 g casein, 532 g dextrose, 200 g fat (160 g palm fat and 40 g corn oil), 20 g cellulose and 20 mmol calcium phosphate (CaPO4·2H2O, Fluka Chemie Buchs, Switzerland). […]
After the experimental feeding period of 14 days, we quantified the colon epithelial cell proliferation as DNA-replication, using [methyl-^3H]thymidine incorporation into DNA. […] These homogenates were analyzed for ^3H-thymidine incorporation and for total DNA content. […] A sample (0.5 ml) of the hydrolysate was dissolved in 15 ml Aqua Luma (Lumac-LSC BV., Groningen, The Netherlands) and counted with corrections for quenching on a Beckman LS-7500 liquid scintillation counter. DNA content was determined using the diphenylamine reaction with calf thymus DNA as standard (Sigma) [24].

colon mucosa = test: Total DNA content of colon mucosa scrapings (diphenylamine reaction); type: in vivo, rats; details: spinach study
From the text: After the experimental feeding period of 14 days, we quantified the colon epithelial cell proliferation as DNA-replication, using [methyl-^3H]thymidine incorporation into DNA. We choose this biochemical method because it is the most rapid, specific and quantitative marker of cell replication in vivo. Moreover, we have shown earlier that DNA-replication highly correlates with faecal water cytotoxicity. This substantiates a cause-and-effect relationship that we want to address in the present study. Non-fasted rats were injected i.p. with [methyl-^3H]thymidine (specific activity 925 GBq / mmol; dose 3.7 MBq / kg body weight; Amersham International, Amersham, UK) in 154 mM NaCl. After 2 hours the rats were killed by CO2 inhalation. The colon was removed and opened longitudinally. Colonic contents were removed by rinsing with 154 mM KCl. […] These homogenates were analyzed for ^3H-thymidine incorporation and for total DNA content. […] A sample (0.5 ml) of the hydrolysate was dissolved in 15 ml Aqua Luma (Lumac-LSC BV., Groningen, The Netherlands) and counted with corrections for quenching on a Beckman LS-7500 liquid scintillation counter. DNA content was determined using the diphenylamine reaction with calf thymus DNA as standard (Sigma).

[2] = test system: human erythrocyte suspension; test: Cytotoxicity of size exclusion chromatography fractions of lipid extracts of pooled fecal water; type: cell-based; details: chlorophyll study, heme group: high-molecular weight components eluting around 6 min (Figure 6B)
Protocol: as §1
Pooled fecal water from the different treatment groups was first purified, by adding 560 µl water and 2.5 ml diethylether (ether) to 100 µl fecal water, and after vigorous mixing, centrifugation at 1500 g for 5 minutes. The ether phase containing chlorophyll was discarded and the procedure was repeated 2 times. The remaining 660 µl sample was acidified with 60 µl HCl (final HCl concentration 1 M) and further extracted with chloroform / methanol as described earlier. The lipid-containing chloroform phase was obtained after centrifugation (10 min, 1500 g) and evaporated under nitrogen. […] The data was processed and analyzed using Shimadzu software. […] The cytotoxicity of these fractions was determined as described above, after resolubilising the samples in 50 mM NaOH and adjusting to neutral pH and 300 mOsm/L with 3-[N-morpholino]-propanesulfonic acid (MOPS).

Substance	inhibition of heme-induced increase of cytotoxicity of the fecal water ([1]; chlorophyll study, supplemented to the heme diet, fecal water of rats (Figure 5))	effect on heme-induced reduction of host DNA in the feces (colonocytes; chlorophyll study, supplemented to the heme diet (Figure 4))	prevention of heme-induced epithelial hyperproliferation (colonic epithelial cells; chlorophyll study, added to heme diet, 1,2 mmol chlorophyll / kg diet, 14 days (Figure 3))	cytotoxicity of the fecal water compared with the control diet ([1]; chlorophyll study, 0.5 mmol heme / kg diet, fecal water of rats (Figure 5))	increase of cytotoxicity of fecal water compared with the control group ([1]; spinach study, fecal water of rats, 0.5 mmol heme / kg diet) [fold]	decrease of DNA content of the mucosa compared with the other groups (colon mucosa; 0.5 mmol heme / kg diet) [%]	DNA content of the mucosa (colon mucosa; mean ± SEM, n=8 per group) [µg DNA / g scraping]	host DNA detected in the feces compared to the control diet (colonocytes; chlorophyll study, 0.5 mmol heme / kg diet, feces of days 11-14 (Figure 4))	exfoliation of colonocytes (rat DNA quantification from faeces) (colonocytes; summary of examples 1 and 2, dietary heme)	increase in rate of DNA-replication compared with the control group (colonic epithelial cells; spinach study, 0.5 mmol heme / kg diet, 14 days) [%]	cytotoxicity of collected size exclusion chromatography fractions [2]
chlorophyll	completely	totally abolished	completely prevented	–	–	–	–	–	–	–	–
hemin [heme]	–	–	–	increase	7	20	4207	strong reduction	inhibited this exfoliation of colonocytes almost completely	50	very high
